Patent US20070179154A1, “Coumarin derivatives, process for their production and use thereof” (Takeda Pharmaceutical Company Limited, priority 2002, published 2007)

melting point	Structure (SMILES)
150 °C (dec.)	Cc1cc2c(-c3cccc(CCC(=O)O)c3)c(CC(=O)Nc3ccccc3C(F)(F)F)c(=O)oc2cc1Cl [Example 20, 3-[3-[7-chloro-6-methyl-2-oxo-3-(2-oxo-2-[[2-(trifluoromethyl)phenyl]amino]ethyl)-2H-chromen-4-yl]phenyl]propionic acid]
212 to 214 °C	Cc1cc2c(-c3cccc(CCC(=O)O)c3)c(CC(=O)Nc3ccc(F)cc3C(F)(F)F)c(=O)oc2cc1Cl [Example 14, 3-[5-[7-chloro-3-[2-[[4-fluoro-2-(trifluoromethyl)phenyl]amino]-2-oxoethyl]-6-methyl-2-oxo-2H-chromen-4-yl]phenyl]propionic acid]
158 to 160 °C	CCOC(=O)CCc1cccc(-c2c(CC(=O)Nc3ccc(F)cc3C(F)(F)F)c(=O)oc3cc(C)c(Cl)cc23)c1 [Example 10, ethyl 3-[3-[6-chloro-3-[2-[[4-fluoro-2-(trifluoromethyl)phenyl]amino]-2-oxoethyl]-7-methyl-2-oxo-2H-chromen-4-yl]phenyl]propionate]
216 to 218 °C	Cc1cc2c(-c3cccc(/C=C/c4nnn[nH]4)c3)c(CC(=O)Nc3ccc(F)cc3C(F)(F)F)c(=O)oc2cc1Cl [Example 41, 2-(7-chloro-6-methyl-2-oxo-4-{3-[(E)-2-(1H-tetrazol-5-yl)ethenyl]phenyl}-2H-chromen-3-yl)-N-[4-fluoro-2-(trifluoromethyl)phenyl]acetamide]
272 to 274 °C	Cc1cc2oc(=O)c(CC(=O)Nc3ccc(F)cc3C(F)(F)F)c(-c3cccc(/C=C/C(=O)O)c3)c2cc1Cl [Example 16, (2E)-3-[3-[6-chloro-3-(2-[[4-fluoro-2-(trifluoromethyl)phenyl]amino]-2-oxoethyl)-7-methyl-2-oxo-2H-chromen-4-yl]phenyl]-2-propenoic acid]
178 to 180 °C	Cc1cc2c(-c3cccc(-c4noc(=S)[nH]4)c3)c(CC(=O)Nc3ccc(F)cc3C(F)(F)F)c(=O)oc2cc1Cl [Example 102, 2-{7-chloro-6-methyl-2-oxo-4-[3-(5-thioxo-4,5-dihydro-1,2,4-oxadiazol-3-yl)phenyl]-2H-chromen-3-yl}-N-[4-fluoro-2-(trifluoromethyl)phenyl]acetamide]
245 to 247 °C	O=C(O)/C=C/c1cccc(-c2c(CC(=O)Nc3ccc(F)cc3C(F)(F)F)c(=O)oc3cc(Cl)c(F)cc23)c1 [Example 17, (2E)-3-[3-[7-chloro-6-fluoro-3-[2-[[4-fluoro-2-(trifluoromethyl)phenyl]amino]-2-oxoethyl]-2-oxo-2H-chromen-4-yl]phenyl]-2-propenoic acid]
277 to 279 °C	Cc1cc2c(-c3ccc(F)c(/C=C/C(=O)O)c3)c(CC(=O)Nc3ccc(Cl)cc3C(F)(F)F)c(=O)oc2cc1Cl [Example 19, (2E)-3-[5-[7-chloro-3-[2-[[4-chloro-2-(trifluoromethyl)phenyl]amino]-2-oxoethyl]-6-methyl-2-oxo-2H-chromen-4-yl]-2-fluorophenyl]-2-propenoic acid]
202 to 204 °C	COC(=O)c1ccc(-c2c(CC(=O)Nc3ccc(F)cc3C(F)(F)F)c(=O)oc3cc(Cl)c(C)cc23)cc1 [Example 45, Methyl 4-(7-chloro-3-{2-[4-fluoro-2-(trifluoromethyl)anilino]-2-oxoethyl}-6-methyl-2-oxo-2H-chromen-4-yl)benzoate]
130 to 132 °C	COC(=O)c1cccc(-c2c(CC(=O)Nc3ccc(Cl)cc3C(F)(F)F)c(=O)oc3cc(Cl)c(CN4CCN(c5ccccc5)CC4)cc23)c1 [Example 109]

The remaining lines, values behind:

Structure (SMILES)	melting point
CCOC(=O)/C=C/C=C/c1cccc(-c2c(CC(=O)Nc3ccc(F)cc3C(F)(F)F)c(=O)oc3cc(Cl)c(C)cc23)c1 [Example 51, Ethyl (2E,4E)-5-[3-(7-chloro-3-{2-[4-fluoro-2-(trifluoromethyl)anilino]-2-oxoethyl}-6-methyl-2-oxo-2H-chromen-4-yl)phenyl]-2,4-pentadienoate]	216 to 218 °C
O=C(O)/C=C/c1cccc(-c2c(CC(=O)Nc3ccc(F)cc3C(F)(F)F)c(=O)oc3cc(Cl)ccc23)c1 [Example 18, (2E)-3-[3-[7-chloro-3-[2-[[4-fluoro-2-(trifluoromethyl)phenyl]amino]-2-oxoethyl]-2-oxo-2H-chromen-4-yl]phenyl]-2-propenoic acid]	254 to 257 °C
CCOC(=O)/C=C/c1cccc(-c2c(CC(=O)Nc3ccc(F)cc3C(F)(F)F)c(=O)oc3cc(Cl)c(F)cc23)c1 [Example 6, ethyl (2E)-3-[3-[7-chloro-6-fluoro-3-[2-[[4-fluoro-2-(trifluoromethyl)phenyl]amino]-2-oxoethyl]-2-oxo-2H-chromen-4-yl]phenyl}-2-propenoate]	151 to 153 °C
CCOC(=O)CS(=O)(=O)Cc1cccc(-c2c(CC(=O)Nc3ccc(F)cc3C(F)(F)F)c(=O)oc3cc(Cl)c(C)cc23)c1 [Example 64, Ethyl ({3-[7-chloro-3-(2-{[4-fluoro-2-(trifluoromethyl)phenyl]amino}-2-oxoethyl)-6-methyl-2-oxo-2H-chromen-4-yl]benzyl}sulfonyl)acetate]	230 to 231 °C
CCOC(=O)/C=C/c1cccc(-c2c(CC(=O)Nc3ccc(F)cc3C(F)(F)F)c(=O)oc3cc(C)c(Cl)cc23)c1 [Example 5, ethyl (2E)-3-[3-[6-chloro-3-[2-[[4-fluoro-2-(trifluoromethyl)phenyl]amino]-2-oxoethyl]-7-methyl-2-oxo-2H-chromen-4-yl]phenyl]-2-propenoate]	206 to 209 °C
CCOC(=O)CNCc1cccc(-c2c(CC(=O)Nc3ccc(F)cc3C(F)(F)F)c(=O)oc3cc(Cl)c(C)cc23)c1 [Example 62, Ethyl ({3-[7-chloro-3-(2-{[4-fluoro-2-(trifluoromethyl)phenyl]amino}-2-oxoethyl)-6-methyl-2-oxo-2H-chromen-4-yl]benzyl}amino)acetate]	153 to 155 °C
CCOC(=O)CCc1cccc(-c2c(CC(=O)Nc3ccccc3C(F)(F)F)c(=O)oc3cc(Cl)c(C)cc23)c1 [Example 9, ethyl 3-[3-[7-chloro-6-methyl-3-[2-[[2-(trifluoromethyl)phenyl]amino]-2-oxoethyl]-2-oxo-2H-chromen-4-yl]phenyl]propionate]	115 to 117 °C
Cc1cc2c(-c3cccc(Cc4noc(=O)[nH]4)c3)c(CC(=O)Nc3ccc(F)cc3C(F)(F)F)c(=O)oc2cc1Cl [Example 100]	161 to 164 °C
CCOC(=O)CCc1cccc(-c2c(CC(=O)Nc3ccc(F)cc3C(F)(F)F)c(=O)oc3ccccc23)c1 [Example 13, ethyl 3-[3-[3-[2-[[4-fluoro-2-(trifluoromethyl)phenyl]amino]-2-oxoethyl]-2-oxo-2H-chromen-4-yl]phenyl]propionate]	163 to 164 °C
CCOC(=O)/C=C/c1cc(-c2c(CC(=O)Nc3ccc(Cl)cc3C(F)(F)F)c(=O)oc3cc(Cl)c(C)cc23)ccc1F [Example 3, ethyl (2E)-3-[5-[7-chloro-3-[2-[[4-chloro-2-(trifluoromethyl)phenyl]amino]-2-oxoethyl]-6-methyl-2-oxo-2H-chromen-4-yl]-2-fluorophenyl]-2-propenoate]	160 to 162 °C
O=C(O)CCc1cccc(-c2c(CC(=O)Nc3ccc(F)cc3C(F)(F)F)c(=O)oc3cc(Cl)ccc23)c1 [Example 23, 3-[3-[7-chloro-3-[2-[[4-fluoro-2-(trifluoromethyl)phenyl]amino]-2-oxoethyl]-2-oxo-2H-chromen-4-yl]phenyl]propionic acid]	211 to 212 °C
Cc1cc2c(-c3cccc(C(=O)O)c3)c(CC(=O)Nc3ccc(Cl)cc3C(F)(F)F)c(=O)oc2cc1Cl [Example 1, 3-[7-chloro-3-[2-[[4-chloro-2-(trifluoromethyl)phenyl]amino]-2-oxoethyl]-6-methyl-2-oxo-2H-chromen-4-yl]benzoic acid]	270 to 272 °C
Cc1cc2c(-c3cccc(C(=O)NC(C)(C)C)c3)c(CC(=O)Nc3ccc(Cl)cc3C(F)(F)F)c(=O)oc2cc1Cl [Example 122]	206 to 208 °C
CCOC(=O)CCc1cccc(-c2c(CC(=O)Nc3ccc(F)cc3C(F)(F)F)c(=O)oc3cc(Cl)c(C)cc23)c1 [Example 8, ethyl 3-[5-[7-chloro-3-[2-[[4-fluoro-2-(trifluoromethyl)phenyl]amino]-2-oxoethyl]-6-methyl-2-oxo-2H-chromen-4-yl]phenyl]propionate]	121 to 123 °C
Cc1cc2c(-c3cccc(-c4nsc(=O)[nH]4)c3)c(CC(=O)Nc3ccc(F)cc3C(F)(F)F)c(=O)oc2cc1Cl [Example 104, 2-{7-chloro-6-methyl-2-oxo-4-[3-(5-oxo-4,5-dihydro-1,2,4-thiadiazol-3-yl)phenyl]-2H-chromen-3-yl}-N-[4-fluoro-2-(trifluoromethyl)phenyl]acetamide]	269 to 271 °C (dec.)
Cc1cc2c(-c3cccc(/C=C/C(=O)O)c3)c(CC(=O)Nc3ccccc3C(F)(F)F)c(=O)oc2cc1Cl [Example 15, (2E)-3-[3-[7-chloro-6-methyl-2-oxo-3-(2-oxo-2-[[2-(trifluoromethyl)phenyl]amino]ethyl)-2H-chromen-4-yl]phenyl]-2-propenoic acid]	252 to 254 °C
Cc1cc2oc(=O)c(CC(=O)Nc3ccc(F)cc3C(F)(F)F)c(-c3cccc(CCC(=O)O)c3)c2cc1Cl [Example 21, 3-[3-[6-chloro-3-(2-[[4-fluoro-2-(trifluoromethyl)phenyl]amino]-2-oxoethyl)-7-methyl-2-oxo-2H-chromen-4-yl]phenyl]propionic acid]	240 to 242 °C
CCOC(=O)/C=C/c1cccc(-c2c(CC(=O)Nc3ccc(F)cc3C(F)(F)F)c(=O)oc3cc(Cl)ccc23)c1 [Example 7, ethyl (2E)-3-[3-[7-chloro-3-[2-[[4-fluoro-2-(trifluoromethyl)phenyl]amino]-2-oxoethyl]-2-oxo-2H-chromen-4-yl]phenyl]-2-propenoate]	166 to 169 °C
O=C(O)CCc1cccc(-c2c(CC(=O)Nc3ccc(F)cc3C(F)(F)F)c(=O)oc3ccccc23)c1 [Example 24, 3-[3-[3-[2-[[4-fluoro-2-(trifluoromethyl)phenyl]amino]-2-oxoethyl]-2-oxo-2H-chromen-4-yl]phenyl]propionic acid]	230 to 232 °C
COC(=O)c1cccc(-c2c(CC(=O)Nc3ccc(F)cc3C(F)(F)F)c(=O)oc3cc(Cl)c(CN4CCN(c5ccccc5)CC4)cc23)c1 [Example 108]	135 to 137 °C
